Data from patent US4543349A, “Basic heptapeptide vasopressin antagonists” (priority 1984, dated 1985).
Starred links: 1 amine or outer side, 2 acyl side, 3 side chain; linkers in the order of their positions; H or OH if unused. Positions of bridges follow the written chain, without caps; N, C: chain ends. Non-standard residues stand in square brackets, D forms with d. Residues, ends and D or L forms follow the SMILES beside them. *: point of attachment. X1 = O=C(CC1(S[*:2])CCCCC1)[*:1]; Agmatine = N=C(N)NCCCCN*; NH(CH2)5NH2 = NCCCCCN*; NH(CH2)4NH2 = NCCCCN*

How the values were obtained:
[1] = target: T1, vasopressin receptors (V2 -receptors) (Sus scrofa, UniProt P32307); assay: 3H-vasopressin binding assay, hog kidney medullary membranes; conditions: competitive inhibition of 3H-vasopressin binding, read-out: Swine KB
T1 construct: from tissue; host or cells: hog kidney medullary membranes
T1 sequence (P32307 whole entry): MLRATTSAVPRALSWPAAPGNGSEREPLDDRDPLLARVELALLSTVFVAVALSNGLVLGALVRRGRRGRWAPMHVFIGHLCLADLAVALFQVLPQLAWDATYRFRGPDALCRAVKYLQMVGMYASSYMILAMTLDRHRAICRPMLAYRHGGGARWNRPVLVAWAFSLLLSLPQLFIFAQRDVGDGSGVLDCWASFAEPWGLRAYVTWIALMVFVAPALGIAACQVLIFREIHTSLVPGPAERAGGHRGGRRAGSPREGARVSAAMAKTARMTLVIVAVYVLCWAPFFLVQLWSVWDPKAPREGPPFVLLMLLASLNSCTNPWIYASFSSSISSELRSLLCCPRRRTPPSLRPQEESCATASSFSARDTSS
Description: Antagonistic activity toward the natural antidiuretic hormone (anti-ADH activity) is determined, in vitro, in the medullary tissue of hog or human kidneys and, in vivo, in the hydropenic rat. The in vitro assay procedures for vasopressin stimulated adenylate cyclase activation or vasopression binding activity are described by F. Stassen et al., J. Pharmacology and Experimental Therapeutics, 223, 50-54 (1982).
These values represent total and non-specific binding, respectively.

hydropenic rat = assay: Hydropenic rat screen (anti-ADH activity in vivo); conditions: dose required to lower urine osmolality to 300 m-Osmoles/kg; intraperitoneal; hydropenic male rats
Description: The assay for anti-ADH activity in vivo is the hydropenic rat protocol described below:
Food and water are removed from male rats approximately 18 hours prior to testing. Animals are housed 4 per metabolism cage. At 0 hour, the test compound is administered intraperitoneally to the test group and an equivalent volume of vehicle is administered to both control groups (fasted and non-fasted). Urine volume and osmolality are measured every hour for 4 hours. Test values are recorded as ml of urine excreted (cumulative), mEq/rat electrolyte excreted, mg/rat urea excreted, and osmolality in milli-Osmoles/kg H2 O. A tolerance test is used to determine significance. Ed300 is defined as the dose of compound (μg/kg) required to lower urine osmolality to 300 m-Osmoles/kg.

[2] = target: vasopressin stimulated adenylate cyclase; assay: Vasopressin stimulated adenylate cyclase activity, hog kidney medullary tissue; type: biochemical; conditions: swine kidney medullary membrane
Description: (§1) In the test procedure for assay of adenylate cyclase activity, the amount of ^32 P/cAMP formed in the absence of medullary membrane is determined (blank). The blank value is subtracted from all experimental data. The compound is tested for its effect on basal adenylate cyclase activity and/or on vasopressin stimulated activity. Each determination is carried out in triplicate. The Ka value is derived from a Lineweaver-Burkeplot. Rel. Vmax =(Vmax drug/Vmax vasopressin)×100. Ki =I/[Ka'/Ka)-1] where I is the concentration of the antagonist, and Ka' and Ka are the concentrations of vasopressin required to give half maximal activity of adenylate cyclase in the presence and absence of antagonist, respectively.

[3] = target: vasopressin stimulated adenylate cyclase; assay: Vasopressin stimulated adenylate cyclase activity, human kidney medullary tissue; type: biochemical; conditions: human kidney medullary membrane
Description: as §1

Structure (SMILES)	Kb [1] [nM]	Rat ED300 (hydropenic rat) [µg/kg]	Ki [2] [nM]	Ki [3] [nM]
CCOc1ccc(C[C@H]2NC(=O)CC3(CCCCC3)SSC[C@@H](C(=O)N3CCC[C@H]3C(=O)NCCCCN=C(N)N)NC(=O)[C@H](CC(N)=O)NC(=O)[C@H](C(C)C)NC(=O)[C@H](Cc3ccccc3)NC2=O)cc1 [G, [1-(β-Mercapto-β,β -cyclopentamethylenepropionic acid)-2-(O--ethyl-D-tyrosine)-4-valine-8-desarginine-9-desglycinamide-8-(1,4-aminoguanidinobutane)]-vasopressin] ([dY](Et)FVNCP-Agmatine; linker N-5 via X1)	14			
CC(C)[C@@H]1NC(=O)[C@H](Cc2ccccc2)NC(=O)[C@@H](Cc2ccc(O)cc2)NC(=O)CC2(CCCCC2)SSC[C@@H](C(=O)N2CCC[C@H]2C(=O)O)NC(=O)[C@H](CC(N)=O)NC1=O [E, [1-(β-Mercapto-β,β -cyclopentamethylenepropionic acid)-2-D-tyrosine-4-valine-8-desarginine-9-desglycinamide]-vasopressin] (HELM PEPTIDE1{[dY].F.V.N.C.P}|CHEM1{[O=C(CC1(S[*:2])CCCCC1)[*:1]]}$PEPTIDE1,CHEM1,1:R1-1:R1|PEPTIDE1,CHEM1,5:R3-1:R2$$$V2.0)	17000			
CC(C)[C@@H]1NC(=O)[C@H](Cc2ccccc2)NC(=O)[C@@H](Cc2ccc(O)cc2)NC(=O)CC2(CCCCC2)SSC[C@@H](C(=O)N2CCC[C@H]2C(=O)NCCCCCN)NC(=O)[C@H](CC(N)=O)NC1=O [A, [1-(β-Mercapto-β,β -cyclopentamethylenepropionic acid)-2-D-tyrosine-4-valine-8-(1,5-diaminopentane)-8-desarginine-9-desglycineamide]-vasopressin] (HELM PEPTIDE1{[dY].F.V.N.C.P.[NCCCCCN[*:1]]}|CHEM1{[O=C(CC1(S[*:2])CCCCC1)[*:1]]}$PEPTIDE1,CHEM1,1:R1-1:R1|PEPTIDE1,CHEM1,5:R3-1:R2$$$V2.0)	220			
CCOc1ccc(C[C@H]2NC(=O)CC3(CCCCC3)SSC[C@@H](C(=O)N3CCC[C@H]3C(=O)NCCCCN)NC(=O)[C@H](CC(N)=O)NC(=O)[C@H](C(C)C)NC(=O)[C@H](Cc3ccccc3)NC2=O)cc1 [C, [1-(β-Mercapto-β,β -cyclopentamethylenepropionic acid)-2-(O--ethyl-D-tyrosine)-4-valine-8-(1,4-diaminobutane)-8-desarginine-9-desglycinamide]-vasopressin] ([dY](Et)FVNCP-{NH(CH2)4NH2}; linker N-5 via X1)	9.2	19	6.4	7.5
CCOc1ccc(C[C@H]2NC(=O)CC3(CCCCC3)SSC[C@@H](C(=O)N3CCC[C@H]3C(=O)O)NC(=O)[C@H](CC(N)=O)NC(=O)[C@H](C(C)C)NC(=O)[C@H](Cc3ccccc3)NC2=O)cc1 [D, [1-(β-Mercapto-β,β -cyclopentamethylenepropionic acid)-2-(O--ethyl-D-tyrosine)-4-valine-8-desarginine-9-desglycinamide]-vasopressin] ([dY](Et)FVNCP-OH; linker N-5 via X1)	410			
CCOc1ccc(C[C@H]2NC(=O)CC3(CCCCC3)SSC[C@@H](C(=O)NCCCCCN)NC(=O)[C@H](CC(N)=O)NC(=O)[C@H](C(C)C)NC(=O)[C@H](Cc3ccccc3)NC2=O)cc1 [F, [1-(β-Mercapto-β,β -cyclopentamethylenepropionic acid)-2-(O--ethyl-D-tyrosine)-4-valine-7-desproline-8-desarginine-9-desglycinamide-7-(1,5-diaminopentane)]-vasopressin]	19			
CCOc1ccc(C[C@H]2NC(=O)CC3(CCCCC3)SSC[C@@H](C(=O)N3CCC[C@H]3C(=O)NCCCCCN)NC(=O)[C@H](CC(N)=O)NC(=O)[C@H](C(C)C)NC(=O)[C@H](Cc3ccccc3)NC2=O)cc1 [B, [1-(β-Mercapto-β,β -cyclopentamethylenepropionic acid)-2-(O--ethyl-D-tyrosine)-4-valine-8-(1,5-diaminopentane)-8-desarginine-9-desglycinamide]-vasopressin] ([dY](Et)FVNCP-{NH(CH2)5NH2}; linker N-5 via X1)	29			
